Measurements: patent US10058520B2, “Compositions and methods for treating alzheimer's disease and dementia” (Department of Veterans Affairs, priority 2007, dated 2018)

Tests used:
[1] = tested on: human Aβ 1-40 and 1-42; experiment: ELISA for human Aβ in brain of huAPP transgenic mice treated with CHP+Zn; format: in vivo, human APP transgenic mice; conditions: 1.0 mg/L CHP+10 mg/L Zn, or Zn or CHP alone, n=9, FIG. 14
Text: According to our studies, CHP in combination with a zinc salt decreases Aβ 1-40 and 1-42 in mice transgenic for human APP. […]
In some embodiments, higher doses are effective as well.

[2] = humans and mice; previous studies; cited from earlier work
[3] = tested on: insulin levels; conditions: previous studies; concentration dependent relative to the amount of zinc; cited from earlier work
[4] = blood, after a single dose; cited from earlier work
[5] = tested on: APP secretion in SH-SY5Y and LA-N-5 human neuroblastoma cell lines and NHNP neuronal progenitor cells; experiment: APP isoform secretion in human neuroblastoma and neuronal progenitor cells (western blot); format: cell-based; conditions: differentiated (+RA) and undifferentiated (-RA) SH-SY5Y, all tested human cell lines, 24 hours of treatment, FIG. 1
[6] = tested on: human Aβ 1-40 and 1-42; experiment: ELISA for human Aβ in brain of R1.40 huAPP transgenic mice treated with T4; format: in vivo, R1.40 human APP transgenic mice
Text: In another study, we discovered that thyroid hormone down-regulates Aβ 1-40 and 1-42 in mice transgenic for the human APP gene. […] R1.40 human APP transgenic mice contain the entire human APP gene carried on a yeast artificial chromosome.
Mice used in these studies carried the complete human APP gene (huAPP), including the 5′ upstream promoter region, inserted into a yeast artificial chromosome (YAC) construct and are referred to as huAPP-YAC transgenic mice (R1.40 strain). The huAPP gene in these mice contained the Swedish mutation and is expressed in high pathology brain regions.
R1.40 mice were implanted with T4 containing slow release pellets for three weeks and ELISA specific for human Aβ was performed utilizing normalized protein from mouse brain cytosols. We observed a 30% decrease in human Aβ 1-42 levels and a 25% decrease in Aβ 1-40 levels in mice treated for three weeks with T4. […] Thus, it has been shown that low level thyroid hormone therapy substantially decreases human Aβ40 and Aβ42 levels in both normal and hypothyroid transgenic mice (n=9 animals per group ±SD).

[7] = tested on: APP isoforms; experiment: Western blot with anti-APP antibody on hemisected brain extracts; format: in vivo, mice; conditions: day 21, FIG. 4
Protocol: In FIG. 4, Western blots were performed utilizing anti-APP antibody on protein from the hemisected brain extracts.

[8] = tested on: APP gene; experiment: RT-PCR of APP mRNA in brain of normal mice; format: in vivo; conditions: normal mouse brain, day 21; FIG. 2 and 3; APP 751 mRNA for hypothyroid mice
Text: On day 21, animals were killed, whole brains were removed and hemisected for protein and RNA analysis, and serum was collected for T4 analysis.

[9] = tested on: +356/+755 region of the first intron of the mouse mdm2 gene in LA-N-5 neuroblastoma cells and HCC1806 breast cancer cells; experiment: pGL3MDM2 reporter transfection assay; format: cell-based; conditions: LA-N-5 and p53 negative HCC1806 cells; FIG. 8 (treatment with T3)
Text: In order to evaluate the direct effect of thyroid hormone on mdm2 gene expression, we cloned the +356/+755 region from the first intron of the mouse mdm2 gene into pGL3-Promoter vector (pGL3MDM2) for use in transfection assays. This region contains an element which binds monomers and homodimers of TRα, in addition to heterodimers of TRα and RXRβ.

[10] = R1.40 mice, T4 slow release pellets for three weeks, brain cytosols, ELISA

Question: For O=C1N[C@@H](Cc2cnc[nH]2)C(=O)N2CCC[C@@H]12 [CHP, cyclo-Hispro], which “brain levels of soluble and insoluble Aβ40 and Aβ42 vs control” value [1] is on record?
Answer: Its value is “no significant changes”.

Question: And the toxicity [2]?
Answer: Its toxicity is “non-toxic”.

Question: And the insulin levels [3]?
Answer: The insulin levels was “does not decrease”.

Question: Which half-life [4] does the source give for N[C@@H](Cc1cc(I)c(Oc2ccc(O)c(I)c2)c(I)c1)C(=O)O [T3, L-triiodothyronine] here?
Answer: The half-life was “hours”.

Question: What about the APP secretion [5] of the same molecule?
Answer: Its APP secretion is “negative hormonal regulation of APP secretion in a concentration dependent manner”.

Question: With NC(Cc1cc(I)c(Oc2cc(I)c(O)c(I)c2)c(I)c1)C(=O)O (stereo not shown) [T4, 3:5,3′:5′ tetra-iodothyronine] as the molecule, how does the half-life [4] read?
Answer: The half-life was “several days”.

Question: What about the “decrease in Aβ 1-40 levels” value [6, 10] of the same molecule?
Answer: The value was 25%.

Question: And the “decrease in human Aβ 1-42 levels” value [6, 10]?
Answer: The value was 30%.

Question: Which “brain levels of soluble and insoluble Aβ40 and Aβ42 vs control” value [1] does the source give for [Zn] [Zn] here?
Answer: Its value is “no significant changes”.

Question: Which results are given for CCCc1cc(=O)[nH]c(=S)[nH]1 [propylthiouracil]?
Answer: expression of APP isoforms (western blot) relative to euthyroid animals [7]: increased; APP mRNA levels (RT-PCR) vs control animals [8]: increased; brain Aβ levels in hypothyroid animals ([6]; iodine-deficient PTU diet for three weeks, FIG. 6): increase

Question: With thyroid hormone as the molecule, how does the “reporter expression of pGL3MDM2” value [9] read?
Answer: The value was “negative regulation”.
